Source: article PMC5011342, “A high throughput drug screening assay to identify compounds that promote oligodendrocyte differentiation using acutely dissociated and purified oligodendrocyte precursor cells” (BMC Research Notes, 2016)
Like-named read-outs stand apart in the source and are kept apart here.

What was measured:
[1] = test system: acutely dissociated and purified rat OPCs; experiment: Acute OL differentiation assay (MBP expression/cell, immunofluorescent image quantification); type: cell-based; details: for EC50: average EC50 for induction of OL differentiation from independent biological replicates, eight concentrations; for hit in OL differentiation assay, MRF-TMC: ● = confirmed hit in this paper's assay
Outline: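 This acute differentiation assay used purified rat OPCs from postnatal day 6–7 pups, seeded into PDL/laminin-coated 96-well plates in differentiation medium lacking PDGF and FGF. Compounds were applied in quadruplicate after a 1–2 h preincubation at 37 °C, 10 % CO2, with 0.1 % DMSO negative and 40 ng/ml T3 positive controls in eight wells. After fixation on DIV4, anti-MBP immunofluorescence images yielded MBP expression/cell.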

expanded OPCs = experiment: cells; details: for viability at 0.1 µM / viability at 1 µM / viability at 10 µM: Rattus norvegicus, 72 h; for 0.1 µM (% DMSO) / 1 µM (% DMSO) / 10 µM (% DMSO): alamarBlue viability of expanded OPCs, relative to DMSO control; for 0.1 µM (% DMSO): compound at 0.1 µM; for 1 µM (% DMSO): compound at 1 µM; for 10 µM (% DMSO): compound at 10 µM
Outline: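 Toxicity screen: compounds added at 0.1, 1 and 10 µM to PDGF-AA-expanded OPCs in 96-well plates, 3-day incubation at 37 °C, 10% CO2, then alamarBlue 1:10 for 4 h with fluorescence readout. Results set screening doses of 10/2, 2/0.4 or 0.4/0.08 µM.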

[2] = Rattus norvegicus, test compound at 2 uM, NCC library screen, sheet "All OLga data", relative to quetiapine, read-out: 2 uM (% Quet)
[3] = Rattus norvegicus, test compound at 10 uM, NCC library screen, sheet "All OLga data", relative to quetiapine, read-out: 10 uM (% Quet)
[4] = read-out: 0.1 µM (% DMSO), alamarBlue viability, NCC library compound at 0.1 µM, sheet "All Tox data"
[5] = read-out: 1 µM (% DMSO), alamarBlue viability, NCC library compound at 1 µM, sheet "All Tox data"
[6] = read-out: 10 µM (% DMSO), alamarBlue viability, NCC library compound at 10 µM, sheet "All Tox data"
[7] = Rattus norvegicus, 2 uM test compound, relative to quetiapine, sheet "All OLga data", read-out: OL differentiation, 2 uM (% Quet)
[8] = Rattus norvegicus, 10 uM test compound, relative to quetiapine, sheet "All OLga data", read-out: OL differentiation, 10 uM (% Quet)
[9] = read-out: 0.1 µM (% DMSO), alamarBlue viability of expanded OPCs, compound at 0.1 µM, sheet All Tox data
[10] = read-out: 1 µM (% DMSO), alamarBlue viability of expanded OPCs, compound at 1 µM, sheet All Tox data
[11] = read-out: 10 µM (% DMSO), alamarBlue viability of expanded OPCs, compound at 10 µM, sheet All Tox data
[12] = Rattus norvegicus, test compound at 2 uM, MBP expression relative to quetiapine, NCC library screen, sheet "All OLga data", read-out: 2 uM (% Quet)
[13] = Rattus norvegicus, test compound at 10 uM, MBP expression relative to quetiapine, NCC library screen, sheet "All OLga data", read-out: 10 uM (% Quet)

In the case of `CN(CCOc1ccc(NS(C)(=O)=O)cc1)CCc1ccc(NS(C)(=O)=O)cc1` [Dofetilide, reference compound], the activation at 2 µM [1, 2] is reported as 19.4%, the activation at 10 µM [1, 3] is reported as 31.8% and the EC50 ([1]; Rattus norvegicus) is reported as 14 µM. For the same molecule, the “hit in OL differentiation assay, MRF-TMC” value [1] was “●”, the viability at 0.1 µM (expanded OPCs; [4]) was 96.1% and the viability at 1 µM (expanded OPCs; [5]) was 98%. The viability at 10 µM (expanded OPCs; [6]) was 122%.

With `C[N+]1(C)CCN(c2ccccc2)CC1` [DMPP, dimethylphenylpiperazinium, reference compound] the activation at 2 µM [1, 7] was 40.6%, the activation at 10 µM [1, 8] was 54.3% and the EC50 ([1]; Rattus norvegicus) was 13 µM. The “hit in OL differentiation assay, MRF-TMC” value [1] was “●”, the viability at 0.1 µM (expanded OPCs; [4]) was 101% and the viability at 1 µM (expanded OPCs; [5]) was 89.5%. It also gave a viability at 10 µM (expanded OPCs; [6]) of 111%.

`COc1ccc2cc([C@H](C)C(=O)O)ccc2c1` [Naproxen] showed an activation at 2 µM [1, 2] of 1%, an activation at 10 µM [1, 3] of -0.6% and a viability at 0.1 µM (expanded OPCs; [4]) of 91.1%. The viability at 1 µM (expanded OPCs; [5]) was 95.1% and the viability at 10 µM (expanded OPCs; [6]) was 94%.

For `CCN(CC)C(=S)SSC(=S)N(CC)CC` [Disulfiram], the activation at 0.4 µM ([1]; Rattus norvegicus, 0.4 uM test compound, relative to quetiapine, sheet "All OLga data", read-out: OL differentiation, 0.4 uM (% Quet)) was -180%, the viability at 0.1 µM (expanded OPCs; [9]) was 22.6% and the viability at 1 µM (expanded OPCs; [10]) was 18.1%. The viability at 10 µM (expanded OPCs; [11]) was 13.8%.

`CC(=O)Oc1ccccc1C(=O)Nc1ncc([N+](=O)[O-])s1` [Nitazoxanide] gave an activation at 2 µM [1, 7] of -75.9%, a viability at 0.1 µM (expanded OPCs; [4]) of 91% and a viability at 1 µM (expanded OPCs; [5]) of 96.5%. For the same molecule, the viability at 10 µM (expanded OPCs; [6]) was 55.7%.

Work on `C[C@H]1O[C@H](O[C@H]2[C@H](O)[C@@H](O)[C@@H](O[C@H]3[C@H](O)[C@@H](O)C(O)O[C@@H]3CO)O[C@@H]2CO)[C@H](O)[C@@H](O)[C@@H]1N[C@H]1C=C(CO)[C@@H](O)[C@H](O)[C@H]1O` (stereo partly drawn) [Acarbose] yielded an activation at 2 µM [1, 7] of 17.5%, an activation at 10 µM [1, 8] of -6.6% and a viability at 0.1 µM (expanded OPCs; [9]) of 88.8%. It also gave a viability at 1 µM (expanded OPCs; [10]) of 92% and a viability at 10 µM (expanded OPCs; [11]) of 93.2%.

In the case of `O.O.O=C1N=C([O-])CN1/N=C/c1ccc(-c2ccc([N+](=O)[O-])cc2)o1.[Na+]` [Dantrolene sodium salt dihydrate], the “2 uM (% Quet)” value ([1]; test compound at 2 uM, MBP expression relative to quetiapine, NCC library screen, sheet "All OLga data") is reported as -16.0 % Quet, the “10 uM (% Quet)” value ([1]; test compound at 10 uM, MBP expression relative to quetiapine, NCC library screen, sheet "All OLga data") is reported as -55.0 % Quet and the “0.1 µM (% DMSO)” value (expanded OPCs) is reported as 93.5 % DMSO. For the same molecule, the “1 µM (% DMSO)” value (expanded OPCs) was 100.3 % DMSO and the “10 µM (% DMSO)” value (expanded OPCs) was 91.7 % DMSO.

In the case of `CN1[C@@H]2CC[C@H]1C[C@@H](OC(c1ccccc1)c1ccccc1)C2` [Benzatropine], the activation at 0.4 µM ([1]; Rattus norvegicus, test compound at 0.4 uM, MBP expression relative to quetiapine, NCC library screen, sheet "All OLga data", read-out: 0.4 uM (% Quet)) is reported as 123%, the activation at 2 µM [1, 12] is reported as 102% and the “0.1 µM (% DMSO)” value (expanded OPCs) is reported as 139.9 % DMSO. The “1 µM (% DMSO)” value (expanded OPCs) was 133.9 % DMSO and the “10 µM (% DMSO)” value (expanded OPCs) was 38.5 % DMSO.

`O=C(O)C(Cl)Cl` [Dichloroacetic Acid] showed an activation at 2 µM [1, 2] of 0.66%, an activation at 10 µM [1, 3] of 13.7% and a viability at 0.1 µM (expanded OPCs; [4]) of 99.2%. For the same molecule, the viability at 1 µM (expanded OPCs; [5]) was 83.6% and the viability at 10 µM (expanded OPCs; [6]) was 83.5%.

In the case of `Cc1ccc(Cl)c(Nc2ccccc2C(=O)O)c1Cl` [Meclofenamic acid], the activation at 2 µM [1, 12] is reported as 14.1%, the activation at 10 µM [1, 13] is reported as -2.1% and the “0.1 µM (% DMSO)” value (expanded OPCs) is reported as 91.1 % DMSO. For the same molecule, the “1 µM (% DMSO)” value (expanded OPCs) was 93.6 % DMSO and the “10 µM (% DMSO)” value (expanded OPCs) was 93.6 % DMSO.

`NC(=O)C[S+]([O-])C(c1ccccc1)c1ccccc1` (stereo not drawn) [Modafinil] showed an activation at 2 µM [1, 7] of 15.5%, an activation at 10 µM [1, 8] of -30.2% and a viability at 0.1 µM (expanded OPCs; [9]) of 105%. For the same molecule, the viability at 1 µM (expanded OPCs; [10]) was 94.6% and the viability at 10 µM (expanded OPCs; [11]) was 99.6%.

`Clc1ccc2c(c1)CCc1cccnc1C2=C1CCNCC1` [Desloratadine] was tested, and the activation at 0.08 µM ([1]; Rattus norvegicus, test compound at 0.08 uM, NCC library screen, sheet "All OLga data", relative to quetiapine, read-out: 0.08 uM (% Quet)) was -28%, the activation at 0.4 µM ([1]; Rattus norvegicus, test compound at 0.4 uM, NCC library screen, sheet "All OLga data", relative to quetiapine, read-out: 0.4 uM (% Quet)) was -84.8% and the viability at 0.1 µM (expanded OPCs; [4]) was 61%. It also gave a viability at 1 µM (expanded OPCs; [5]) of 29% and a viability at 10 µM (expanded OPCs; [6]) of 10.5%.

In the case of `CN(C)[C@@H]1C(O)=C(C(N)=O)C(=O)[C@@]2(O)C(O)=C3C(=O)c4c(O)cccc4[C@@](C)(O)[C@H]3[C@H](O)[C@@H]12` [Oxytetracycline], the activation at 2 µM [1, 12] is reported as -42.7%, the activation at 10 µM [1, 13] is reported as -36.7% and the “0.1 µM (% DMSO)” value (expanded OPCs) is reported as 98.0 % DMSO. For the same molecule, the “1 µM (% DMSO)” value (expanded OPCs) was 97.7 % DMSO and the “10 µM (% DMSO)” value (expanded OPCs) was 93.6 % DMSO.

`CCOC(=O)OC(C)OC1=C(C(=O)Nc2ccccn2)N(C)S(=O)(=O)c2ccccc21` (stereo not drawn) [Ampiroxicam] gave an activation at 2 µM [1, 2] of 12.7%, an activation at 10 µM [1, 3] of -2% and a viability at 0.1 µM (expanded OPCs; [4]) of 97.8%. It also gave a viability at 1 µM (expanded OPCs; [5]) of 82.6% and a viability at 10 µM (expanded OPCs; [6]) of 90.8%.
